The source of these data is ChEMBL document CHEMBL1201862, “PubChem BioAssay data set” (2004).

The source made the active and inactive calls.

The target in assay [1] is T1, Replicative DNA helicase DnaB (Mycobacterium tuberculosis, UniProt P9WMR3).
T1 sequence (P9WMR3 whole entry): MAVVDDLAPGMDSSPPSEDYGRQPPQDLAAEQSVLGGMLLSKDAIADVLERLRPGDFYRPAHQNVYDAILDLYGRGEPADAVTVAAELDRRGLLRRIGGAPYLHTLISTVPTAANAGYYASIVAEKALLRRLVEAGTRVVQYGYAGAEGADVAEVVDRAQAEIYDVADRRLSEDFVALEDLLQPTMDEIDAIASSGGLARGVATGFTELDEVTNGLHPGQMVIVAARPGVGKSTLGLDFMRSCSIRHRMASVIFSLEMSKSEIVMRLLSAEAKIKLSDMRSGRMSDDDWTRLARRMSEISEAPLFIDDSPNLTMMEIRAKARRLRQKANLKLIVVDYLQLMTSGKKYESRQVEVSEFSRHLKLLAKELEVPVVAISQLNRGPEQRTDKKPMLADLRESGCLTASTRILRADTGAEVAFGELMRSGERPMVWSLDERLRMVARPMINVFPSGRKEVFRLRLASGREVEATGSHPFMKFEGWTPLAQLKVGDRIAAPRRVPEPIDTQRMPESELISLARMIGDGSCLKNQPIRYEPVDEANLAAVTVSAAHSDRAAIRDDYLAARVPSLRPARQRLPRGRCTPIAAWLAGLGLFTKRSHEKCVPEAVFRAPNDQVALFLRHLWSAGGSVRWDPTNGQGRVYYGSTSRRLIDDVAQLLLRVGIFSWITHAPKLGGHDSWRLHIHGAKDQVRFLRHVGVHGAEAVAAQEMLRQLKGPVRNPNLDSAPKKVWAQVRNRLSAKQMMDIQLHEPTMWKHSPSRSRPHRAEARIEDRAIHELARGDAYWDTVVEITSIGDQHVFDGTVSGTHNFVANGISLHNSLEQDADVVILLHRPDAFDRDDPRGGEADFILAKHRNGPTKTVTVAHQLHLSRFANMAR
In words: DnaB intein splicing inhibitors, dose response, biochemical, cell-free fluorescence (AID 449749). The assay is classed as functional.

The target in assay [2] is T2, Ubiquitin-conjugating enzyme E2 N (Homo sapiens, UniProt P61088).
T2 sequence (P61088 whole entry): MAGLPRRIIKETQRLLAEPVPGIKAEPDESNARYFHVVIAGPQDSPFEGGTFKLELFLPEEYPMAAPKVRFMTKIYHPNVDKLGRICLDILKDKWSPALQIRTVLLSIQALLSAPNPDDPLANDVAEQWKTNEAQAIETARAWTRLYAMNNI
The assay is classed as functional.

Assay [3] concerns the target T2, Ubiquitin-conjugating enzyme E2 N. It counts as functional. The source holds these as a separate data set.
A further assay has as its target T3, Protein RecA (Mycobacterium tuberculosis, UniProt P9WHJ3).
T3 sequence (P9WHJ3 whole entry): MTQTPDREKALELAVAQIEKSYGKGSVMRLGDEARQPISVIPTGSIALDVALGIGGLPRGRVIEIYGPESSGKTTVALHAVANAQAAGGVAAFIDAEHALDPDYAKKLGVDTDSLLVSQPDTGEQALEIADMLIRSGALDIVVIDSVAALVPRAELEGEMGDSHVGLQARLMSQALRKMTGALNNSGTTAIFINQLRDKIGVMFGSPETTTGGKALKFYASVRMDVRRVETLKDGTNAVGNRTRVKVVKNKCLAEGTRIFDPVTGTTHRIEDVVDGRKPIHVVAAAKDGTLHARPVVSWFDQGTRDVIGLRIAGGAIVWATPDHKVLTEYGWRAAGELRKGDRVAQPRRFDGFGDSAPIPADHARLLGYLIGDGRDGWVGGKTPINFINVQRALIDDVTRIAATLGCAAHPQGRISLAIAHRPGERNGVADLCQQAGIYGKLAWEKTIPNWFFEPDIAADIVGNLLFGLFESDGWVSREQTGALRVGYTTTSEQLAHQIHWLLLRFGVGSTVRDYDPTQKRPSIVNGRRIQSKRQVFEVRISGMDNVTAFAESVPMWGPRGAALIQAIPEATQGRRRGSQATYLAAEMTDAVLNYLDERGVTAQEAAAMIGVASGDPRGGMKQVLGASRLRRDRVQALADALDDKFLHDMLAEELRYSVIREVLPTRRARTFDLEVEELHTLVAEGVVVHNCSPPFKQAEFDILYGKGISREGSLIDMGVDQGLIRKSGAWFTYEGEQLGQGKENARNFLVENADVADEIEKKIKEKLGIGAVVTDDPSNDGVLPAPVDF
The assay can be described thus: Fluorescence Cell-Free Homogeneous Dose Retest to Identify Inhibitors of RecA-Intein Splicing Activity. [Related pubchem assays (depositor defined):AID2097, AID2223, AID489010, AID492950]. It counts as functional.

The next assay addresses T4, Bcl-2-related protein A1 (Mus musculus, UniProt Q07440).
T4 sequence (Q07440 whole entry): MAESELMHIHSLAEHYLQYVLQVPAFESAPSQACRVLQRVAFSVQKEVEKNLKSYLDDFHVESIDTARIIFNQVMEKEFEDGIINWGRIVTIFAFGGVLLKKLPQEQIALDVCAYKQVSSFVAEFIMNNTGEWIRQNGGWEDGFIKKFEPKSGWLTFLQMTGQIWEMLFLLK
It counts as functional.

The next assay has as its target T5, Streptokinase A (Streptococcus pyogenes serotype M1, UniProt P10520).
T5 sequence (P10520 whole entry): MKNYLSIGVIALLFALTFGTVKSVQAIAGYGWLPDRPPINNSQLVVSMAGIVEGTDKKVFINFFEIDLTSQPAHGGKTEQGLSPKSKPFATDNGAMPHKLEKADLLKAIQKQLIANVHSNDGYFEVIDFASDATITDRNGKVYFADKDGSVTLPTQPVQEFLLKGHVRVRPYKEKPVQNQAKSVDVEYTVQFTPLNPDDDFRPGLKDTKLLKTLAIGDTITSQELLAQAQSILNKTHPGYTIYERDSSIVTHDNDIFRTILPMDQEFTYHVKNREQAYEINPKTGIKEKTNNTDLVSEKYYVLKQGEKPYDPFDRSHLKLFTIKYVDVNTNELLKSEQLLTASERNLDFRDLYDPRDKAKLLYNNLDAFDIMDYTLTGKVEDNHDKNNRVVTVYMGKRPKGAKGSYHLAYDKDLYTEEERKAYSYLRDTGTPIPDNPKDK
In words: S. pyogenes streptokinase expression inhibitors, potency, dose response, plasminogen activation absorbance, OD405 (AID 1914).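 Note: secreted streptokinase activity via plasminogen activation per viability signal from cell pellet.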 It counts as functional, Streptococcus pyogenes M1 GAS.

As usually defined, the AC50 is the concentration at which the activity in the assay is half-maximal. As usually defined, the IC50 is the concentration that gives 50% inhibition. In general, EC50 refers to the concentration that produces a half-maximal response. With `CCCCCCCCCC[N+](C)(C)CC/C=C1/c2ccccc2Sc2ccc(Cl)cc21`, the half-maximal activity concentration (AC50) in assay [1] was > 380 µM (inconclusive). For the same molecule, the IC50 in assay [2] was 4.61 µM (active); in assay [3], 3.77 µM (active); on Bcl-2-related protein A1 it was 8.08 µM (active). Also, the concentration giving a half-maximal response (EC50) was 5.8 µM (active) on Protein RecA and 6.63 µM (active) on Streptokinase A.

As to `O=C(NCCc1ccccc1)C(c1cccs1)N(C(=O)CCl)c1ccc(Cl)cc1` (centres undefined), the concentration at half-maximal activity (AC50) in assay [1] is 1.49 µM (active). Further, the EC50 on Protein RecA is 0.233 µM (active).

Take `COc1cc(/C=C/c2cc[n+](C)cc2)ccc1OCC(=O)Nc1ccc(Cl)c(Cl)c1`: the AC50 in assay [1] was > 380 µM (inactive). Moreover, the IC50 was 7.13 µM (active) in assay [2], 7.74 µM (active) in assay [3] and > 20 µM (inactive) on Bcl-2-related protein A1. Moreover, the EC50 on Protein RecA was 17.2 µM (active); at Streptokinase A, > 150 µM (not active).
